The results in this text go back to US5624903A, “Phosphoinositol-glycan-peptide with insulin-like action” (Heochst Aktiengesellschaft, priority 1991, dated 1997).

One test concerns pieces of diaphragm. Nature of the test: Glycogenesis in rat diaphragm pieces ([14C]glucose into glycogen). The test is classed as cell-based. To be noted: 10 nM. How it is done:
(§1) Small pieces of tissue (5 mm diameter) were punched out of hemidiaphragms (Wistar rat, 60-70 g, no feed restriction) and washed several times.
(§2) To inactivate the insulin receptor in rat diaphragm, the pieces of tissue are incubated in KRH buffer (0.1 mM glucose in the presence of 50 μg/ml tetradecanoylphorbol acetate) at 25° C., passing O2 through continuously, for 90 min. The pieces of tissue are subsequently washed twice with KRH buffer and used for the relevant tests.
(§3) The experimental results obtained in the following experiments with tissue or cells in which the insulin receptor has been inactivated are indicated in parentheses in each case.
This test determines the glycogen synthesis which can be stimulated by insulin in myocytes and which embraces glucose transport through the plasma membrane and the conversion of the glucose into glycogen including the functional insulin signal transmission cascade.
Pieces of diaphragm are incubated with 50 μM D-[U-^14 C] glucose in KRH buffer in the presence or absence of insulin and PGP at 37° C. for 15 min. […] To determine the glycogen formed, the filters are transferred into TCA (5%), washed with ethanol and acetone and dried, and their radio-activity is determined by scintillation measurement ([^14 C]glycogen [dpm*10^-3 ]). […]

A further test deals with glycogen synthase. Nature of the test: Glycogen synthase activity in rat diaphragm pieces. The note with it: 10 nM. The test is classed as cell-based. How it is done: as §1, §2, §3
The test determines the conversion, which can be stimulated by insulin, of activated glucose (UDP-glucose) into glycogen (glycogen synthase activity) including a functional insulin signal transmission cascade. […]
Pieces of diaphragm are incubated with D-glucose (0.1 mM) in the presence or absence of insulin and PGP at 37° C. for 30 min. […] The glycogen synthase activity is calculated as the fractional ratio between the I form of the enzyme (independent of glucose 6-phosphate, dephosphorylated, corresponds to the amount of active enzyme in the homogenate) and the D form of the enzyme (dependent on glucose 6-phosphate, phosphorylated, corresponds to the total amount of activatable enzyme in the homogenate) ([^14 C]glycogen [dpm*10^-3 ]).

Test [1] has as its system rat adipocytes. Briefly: Lipogenesis in rat adipocytes ([3H]glucose into lipids). It is filed as cell-based. To be noted: for Lipogenesis ([3H]lipid): 10 nM. How it is done: (§4) Adipose tissue from the epididymis (Wistar rat, 160-180 g, no feed restriction) is digested with collagenase, and the resulting isolated adipocytes are washed several times by flotation.
(§5) To inactivate the insulin receptor in rat adipocytes, the cells are treated with 10 to 40 μg/ml trypsin. After addition of protease inhibitors, the cells are washed twice by flotation, and incubation is continued at 37° C. for 15 min. These cells are then used for the test of stimulation of lipogenesis by the phosphoinositol-glycanpeptides.
as §3
This test determines the conversion, which can be stimulated by insulin, of glucose into toluene-soluble products (triglycerides, phospholipids, fatty acids), which requires glucose transport and triglyceride (glycerol 3-P synthesis, esterification)/phospholipid/fatty acid synthesis including the insulin signal transmission cascade.
Rat adipocytes are incubated in KRH buffer with D-[3-^3 H]glucose (0.2 mM or 1 mM final concentration) in the presence or absence of insulin and PGP at 37° C. for 90 min. The cells are disrupted by adding a toluene-soluble scintillation cocktail, and the lipids are separated from water-soluble products and the incubation medium. After phase separation, the radioactivity incorporated in lipids is determined by scintillation measurement directly without removing the aqueous phase ([^3 H]lipid [dpm*10^-3 ]).

The test system of test [2] is plasma membrane vesicles from rat adipocytes. Briefly: Intrinsic glucose transport activity in isolated plasma membrane vesicles. It is filed as biochemical. To be noted: 10 nM. How it is done: as §4, §5
The experimental results obtained in the following experiments with tissue or cells in which the insulin receptor has been inactivated are indicated in parentheses in each case. […]
Isolated plasma membrane vesicles are incubated in the presence or absence of insulin/PGP at 25° C. for 30 min. The vesicles are subsequently incubated with 50 μM D-[3-^3 H]-glucose and L-[1-^14 C]glucose of the same specific radioactivity at 25° C. for 90 sec. […] Their radioactivity is determined by liquid scintillation measurement. The specific transport (D-[^3 H]glucose/-L-^14 C]glucose [dpm*10^-3 ]) is calculated as the difference between the [^3 H] radioactivity and [^14 C] radioactivity.

Test [3] has as its system rat adipocytes. Briefly: Protein synthesis in rat adipocytes ([3H]leucine incorporation). It is filed as cell-based. The note with it: 10 nM. How it is done:
as §4, §5, §3
The stimulation of protein synthesis differs from the metabolic effects of insulin measured in the previous determinations in that it belongs to the long-term actions of insulin (as growth hormone). The assay includes the insulin signal cascade.
Rat adipocytes are incubated in primary culture in Dulbecco's modified essential medium (DMEM) deplete in leucine with 50 μM L-[^3 H]-leucine in the presence of insulin and PGP at 37° C. for 4 hours. […] The cell-associated radioactivity, determined by scintillation measurement, serves as a measure of the protein synthesis and the amino-acid transport through the plasma membrane ([^3 H]leucine [dpm*10^-4 ]).

[4] abbreviates: insulin receptor inactivated (value in parentheses).

With “Insulin: insulin stands for human insulin”, the “Glycogenesis ([14C]glycogen)” value in the test with pieces of diaphragm (rat diaphragm pieces) worked out at 8.4 dpm*10^-3; in the test with pieces of diaphragm (rat diaphragm, insulin receptor inactivated (value in parentheses)), 4.1 dpm*10^-3. Further, the Glycogen synthase amounted to 6.0 dpm*10^-3 with glycogen synthase (setting [4]) and 10.1 dpm*10^-3 in the test with glycogen synthase (rat diaphragm pieces). Moreover, the “Lipogenesis ([3H]lipid)” value in the test on rat adipocytes [1] (rat adipocytes) amounted to 11.2 dpm*10^-3; with rat adipocytes [1] (trypsin-treated adipocytes, insulin receptor inactivated (value in parentheses)), 1.9 dpm*10^-3. Moreover, the “Lipogenesis which can be stimulated by insulin (in words)” value in the test with rat adipocytes [1] (control incubation, adipocytes treated with 10 to 40 μg/ml trypsin) is listed as “only very little lipogenesis which can be stimulated by insulin”. In addition, the “Intrinsic glucose transport (specific transport D-[3H]glucose/L-[14C]glucose)” value in test [2] (setting [4]) is recorded as 2.3 dpm*10^-3; in test [2] (plasma membrane vesicles), 2.5 dpm*10^-3. In addition, the “Protein synthesis ([3H]leucine)” value with rat adipocytes [3] (setting [4]) stood at 4.0 dpm*10^-4; in the test on rat adipocytes [3] (rat adipocytes, 4 hours), 10.1 dpm*10^-4.
